Results on four compounds are retold here after article PMC4500090 (Biochemical and biophysical research communications, 2015).

By IC50 is commonly meant the midpoint of a concentration-inhibition curve.

For test [1], the target named is T1, MEKK2 (Homo sapiens, UniProt Q9Y2U5).
T1 sequence (Q9Y2U5 1-619): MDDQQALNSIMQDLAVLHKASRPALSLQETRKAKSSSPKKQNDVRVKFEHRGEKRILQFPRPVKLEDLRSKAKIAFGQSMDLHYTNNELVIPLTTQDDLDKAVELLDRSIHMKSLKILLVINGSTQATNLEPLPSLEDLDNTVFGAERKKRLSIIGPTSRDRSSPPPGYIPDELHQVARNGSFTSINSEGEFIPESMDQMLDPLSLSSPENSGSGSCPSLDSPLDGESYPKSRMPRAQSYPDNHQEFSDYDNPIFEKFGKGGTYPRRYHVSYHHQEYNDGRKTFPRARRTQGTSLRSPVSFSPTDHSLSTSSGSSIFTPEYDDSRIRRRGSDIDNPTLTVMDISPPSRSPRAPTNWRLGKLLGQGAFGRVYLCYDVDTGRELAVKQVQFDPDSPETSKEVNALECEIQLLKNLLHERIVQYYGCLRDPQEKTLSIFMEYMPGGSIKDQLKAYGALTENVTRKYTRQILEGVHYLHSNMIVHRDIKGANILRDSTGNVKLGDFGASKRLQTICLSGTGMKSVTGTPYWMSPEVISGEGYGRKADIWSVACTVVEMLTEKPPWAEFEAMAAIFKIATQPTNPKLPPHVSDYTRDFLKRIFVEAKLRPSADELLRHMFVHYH
In words: MEKK2 transphosphorylation slot blot assay using MKK6 as a substrate. Format: biochemical.

The test system of test [2] is Abl (T315I) mutant. The note with it: read-out: IC50 Abl (T315I) mutant; cited from earlier work.
For test [3], the system named is JAK3. The note with it: read-out: IC50 JAK3; cited from earlier work.
Test [4] concerns the target T1, MEKK2. In words: MEKK2 intrinsic ATPase activity assay. The test is classed as biochemical.
Test [5] deals with Aurora A. The note with it: read-out: IC50 Aurora A; cited from earlier work.
The subject of test [6] is 10 other kinases. The note with it: read-out: IC50 10 other kinases; cited from earlier work.
Test [7] deals with Aurora B. The note with it: read-out: IC50 Aurora B; cited from earlier work.
Test [8] relates to Aurora B. The note with it: read-out: IC50 Aurora B; cited from earlier work. This is another data set of the same source.
In test [9] the test system is CDK3. The note with it: read-out: IC50 CDK3; cited from earlier work.
Test [10] deals with CDK2. The note with it: read-out: IC50 CDK2; cited from earlier work.
The subject of test [11] is CDK1. The note with it: read-out: IC50 CDK1; cited from earlier work.

Like-named read-outs stand apart in the source and are kept apart here.

As for `O=C(Nc1c[nH]nc1-c1nc2ccc(CN3CCOCC3)cc2[nH]1)NC1CC1` [AT9283], the IC50 was 4.7 ± 0.9 nM in test [1]; 4 nM in test [2]; […] in test [3]; […] in [4]; […] in test [5]; […] in test [6]. The IC50 in test [7] was […].
Turning to `NC(=O)Nc1cc(-c2cccc(F)c2)sc1C(=O)N[C@H]1CCCNC1` [AZD7762], the IC50 in test [1] came out at 14 ± 2 nM; in test [4], 20 ± 7 nM.
As for `CCS(=O)(=O)Nc1ccc2c(c1)/C(=C(/Nc1ccc(CN3CCCCC3)cc1)c1ccccc1)C(=O)N2` [Hesperadin], the values for the IC50 in [1], in test [8] and in test [4] were 34 ± 11 nM, 250 nM and 60 ± 25 nM, respectively.
`Nc1nc(Nc2ccc(S(N)(=O)=O)cc2)nn1C(=O)c1c(F)cccc1F` [JNJ-7706621]: the IC50 in test [1] is 17 ± 2 nM; in test [9] it was […]; in test [10], […]; in test [4], 24 ± 8 nM; in [11], […].
